One test relates to Sclerotinia sclerotiorum. The test can be described thus: Fungicidal activity against Sclerotinia sclerotiorum assessed as fungal inhibitory rate at 16 ug/ml relative to control. In kind it is functional.
A further test relates to Colletotrichum lagenaria. The test can be described thus: Fungicidal activity against Colletotrichum lagenarium assessed as fungal inhibitory rate at 16 ug/ml relative to control. In kind it is functional.
For test [1], the system named is Botrytis cinerea. The experiment in a line: Fungicidal activity against Botrytis cinerea assessed as fungal inhibitory rate at 16 ug/ml relative to control. It is filed as functional.
The test system of a further test is Penicillium digitatum. The experiment in a line: Fungicidal activity against Penicillium digitatum assessed as fungal inhibitory rate at 16 ug/ml relative to control. It is filed as functional.
The next test has as its system Fusarium oxysporum. The experiment in a line: Fungicidal activity against Fusarium oxysporum assessed as fungal inhibitory rate at 16 ug/ml relative to control. It is filed as functional.
Test [2] concerns Botrytis cinerea. The experiment in a line: Fungicidal activity against Botrytis cinerea assessed as fungal growth reduction. In kind it is functional, organism-based.
A short description of test [3]: Inhibition of Botrytis cinerea CYP51 by ELISA. A general note: An ELISA detects its analyte on a solid surface through an enzyme-linked reagent.

Structures are written as SMILES. ≈ marks a conversion by molar mass, not a printed value.

As a reminder, the inhibition is the percentage by which the read-out fell short of the control. For the compound `CN1CC2=C(OC(N)=C(C#N)C2c2ccc(Cl)s2)/C(=C/c2ccc(Cl)s2)C1` (stereo not drawn), the inhibition at 16 µg/mL in the test with Sclerotinia sclerotiorum came out at 64.9%; in the test on Colletotrichum lagenaria, 66%; in the test with Botrytis cinerea [1], 48.5%; in the test on Penicillium digitatum, 46.8%; in the test with Fusarium oxysporum it was 34.5%.

For orientation: EC50 means the midpoint of the concentration-response curve. As a reminder, the IC50 is the concentration at which inhibition is half-maximal. A higher IC50 goes with a need for much substance. Take `N#CC1=C(N)OC2=C(CN(C(=O)c3ccco3)C/C2=C\c2ccco2)C1c1ccco1` (stereo not drawn): the inhibition at 16 µg/mL with Sclerotinia sclerotiorum worked out at 65.4%; with Botrytis cinerea [1] it was 100%; in the test with Penicillium digitatum it was 58.2%. For the same compound, the EC50 with Botrytis cinerea [2] amounted to 1.17 µg/mL (≈ 2.82 µM). In test [3], this compound displayed an IC50 of 1.425 µg/mL (≈ 3.43 µM).

For the compound `COC(=O)C1=C(N)OC2=C(CN(C)C/C2=C\c2ccc(Br)o2)C1c1ccc(Br)o1` (stereo not drawn), the inhibition at 16 µg/mL in the test on Sclerotinia sclerotiorum turned out to be 77.4%; with Botrytis cinerea [1], 60%; in the test with Fusarium oxysporum, 45.6%.

Take `Cc1ccc(/C=C2\CN(C(=O)c3ccco3)CC3=C2OC(N)=C(C#N)C3c2ccc(C)o2)o1` (stereo not drawn): the inhibition at 16 µg/mL turned out to be 46.2% in the test with Sclerotinia sclerotiorum, 85.4% with Botrytis cinerea [1], 39% in the test with Penicillium digitatum and 38.1% with Fusarium oxysporum.

For `Cc1ccc(/C=C2\CN(C(=O)c3cccs3)CC3=C2OC(N)=C(C#N)C3c2ccc(C)o2)o1` (stereo not drawn), the inhibition at 16 µg/mL in the test on Sclerotinia sclerotiorum is 24.7%; with Colletotrichum lagenaria, 23.4%; in the test with Botrytis cinerea [1] it was 56.9%; in the test with Penicillium digitatum it was 21.9%; in the test with Fusarium oxysporum, 22.9%.

Take `N#CC1=C(N)OC2=C(CN(C(=O)c3ccco3)C/C2=C\c2ccc(Br)s2)C1c1ccc(Br)s1` (stereo not drawn): the inhibition at 16 µg/mL with Sclerotinia sclerotiorum worked out at 31.6%; with Colletotrichum lagenaria, 28.1%; with Botrytis cinerea [1], 66.5%; in the test on Penicillium digitatum it was 25.7%; with Fusarium oxysporum, 25%.

As for `CN1CC2=C(OC(N)=C(C#N)C2c2ccc(Br)s2)/C(=C/c2ccc(Br)s2)C1` (stereo not drawn), the inhibition at 16 µg/mL in the test with Sclerotinia sclerotiorum is 60.7%; in the test on Colletotrichum lagenaria, 60.5%; with Botrytis cinerea [1] it was 44.8%; in the test on Penicillium digitatum it was 42.5%; in the test with Fusarium oxysporum it was 31.2%.

Take `Cc1ccc(/C=C2\CN(C)CC3=C2OC(N)=C(C#N)C3c2ccc(C)s2)s1` (stereo not drawn): the inhibition at 16 µg/mL in the test on Sclerotinia sclerotiorum was 58.6%; with Colletotrichum lagenaria it was 57.6%; with Penicillium digitatum, 38.9%; with Fusarium oxysporum it was 27.6%.

As to `N#CC1=C(N)OC2=C(CN(C(=O)c3cccs3)C/C2=C\c2ccc(Br)o2)C1c1ccc(Br)o1` (stereo not drawn), the inhibition at 16 µg/mL with Sclerotinia sclerotiorum was determined as 62.7%; with Botrytis cinerea [1] it was 100%; in the test with Penicillium digitatum, 54.5%; with Fusarium oxysporum, 55.2%. Further, in the test on Botrytis cinerea [2], the concentration giving a half-maximal response (EC50) was 1.3 µg/mL (≈ 2.21 µM). This compound also showed an IC50 in test [3] of 1.522 µg/mL (≈ 2.58 µM).

With `Cc1ccc(/C=C2\CN(C(=O)c3ccco3)CC3=C2OC(N)=C(C#N)C3c2ccc(C)s2)s1` (stereo not drawn), the inhibition at 16 µg/mL in the test with Colletotrichum lagenaria was 31.1%; in the test with Botrytis cinerea [1], 70.1%; in the test with Penicillium digitatum, 28.5%; with Fusarium oxysporum, 27.6%.

For the compound `N#CC1=C(N)OC2=C(CN(C(=O)c3cccs3)C/C2=C\c2cccs2)C1c1cccs1` (stereo not drawn), the inhibition at 16 µg/mL in the test with Sclerotinia sclerotiorum was determined as 37.6%; with Colletotrichum lagenaria, 33.7%; in the test with Botrytis cinerea [1], 73.6%; with Penicillium digitatum, 30.2%.

On to `COC(=O)C1=C(N)OC2=C(CN(C(=O)c3ccco3)C/C2=C\c2ccc(Cl)s2)C1c1ccc(Cl)s1` (stereo not drawn), for which the inhibition at 16 µg/mL with Colletotrichum lagenaria is 75.7%; with Botrytis cinerea [1], 100%; with Penicillium digitatum it was 70%; with Fusarium oxysporum, 77.7%. In the test with Botrytis cinerea [2], the EC50 was determined as 0.761 µg/mL (≈ 1.39 µM). The IC50 in test [3] worked out at 0.831 µg/mL (≈ 1.51 µM).

Regarding `CN1CC2=C(OC(N)=C(C#N)C2c2cccs2)/C(=C/c2cccs2)C1` (stereo not drawn), the inhibition at 16 µg/mL in the test on Sclerotinia sclerotiorum was determined as 68.8%; with Colletotrichum lagenaria, 70.9%; with Botrytis cinerea [1], 50.2%; in the test with Fusarium oxysporum, 38.9%.

On to `N#CC1=C(N)OC2=C(CN(C(=O)c3ccco3)C/C2=C\c2cccs2)C1c1cccs1` (stereo not drawn), for which the results for the inhibition at 16 µg/mL in the test with Sclerotinia sclerotiorum, with Botrytis cinerea [1] and in the test with Fusarium oxysporum were 27.9%, 62.7% and 23.8%, respectively.

Take `COC(=O)C1=C(N)OC2=C(CN(C)C/C2=C\c2ccc(Cl)s2)C1c1ccc(Cl)s1` (stereo not drawn): the inhibition at 16 µg/mL in the test with Sclerotinia sclerotiorum turned out to be 49.6%; in the test with Colletotrichum lagenaria it was 42.9%; with Botrytis cinerea [1] it was 35.2%; in the test on Penicillium digitatum it was 30%; in the test with Fusarium oxysporum, 23.6%.

Take `Cc1ccc(/C=C2\CN(C(=O)c3cccs3)CC3=C2OC(N)=C(C#N)C3c2ccc(C)s2)s1` (stereo not drawn): the inhibition at 16 µg/mL in the test with Sclerotinia sclerotiorum amounted to 21.1%; in the test on Colletotrichum lagenaria, 20.5%; in the test on Botrytis cinerea [1], 51.8%; with Penicillium digitatum it was 20.1%; with Fusarium oxysporum, 20.3%.

For the compound `COC(=O)C1=C(N)OC2=C(CN(C)C/C2=C\c2ccco2)C1c1ccco1` (stereo not drawn), the inhibition at 16 µg/mL was 73.7% with Sclerotinia sclerotiorum; 76.5% in the test with Colletotrichum lagenaria; 56.7% with Botrytis cinerea [1]; 60.9% in the test on Penicillium digitatum; 41.7% in the test on Fusarium oxysporum.

As for `COC(=O)C1=C(N)OC2=C(CN(C(=O)c3ccco3)C/C2=C\c2cccs2)C1c1cccs1` (stereo not drawn), the inhibition at 16 µg/mL in the test with Sclerotinia sclerotiorum turned out to be 43.4%; with Colletotrichum lagenaria it was 38.2%; in the test with Botrytis cinerea [1], 82.2%; in the test with Penicillium digitatum, 36.1%; in the test with Fusarium oxysporum it was 34%.

With `Cc1ccc(/C=C2\CN(C)CC3=C2OC(N)=C(C#N)C3c2ccc(C)o2)o1` (stereo not drawn), the inhibition at 16 µg/mL was 81.6% with Sclerotinia sclerotiorum; 84.8% in the test with Colletotrichum lagenaria; 65.6% in the test with Botrytis cinerea [1]; 74% in the test with Penicillium digitatum; 48.5% in the test with Fusarium oxysporum.

In the case of `N#CC1=C(N)OC2=C(CN(C(=O)c3cccs3)C/C2=C\c2ccc(Br)s2)C1c1ccc(Br)s1` (stereo not drawn), the inhibition at 16 µg/mL turned out to be 48.9% in the test on Sclerotinia sclerotiorum, 44.3% in the test with Colletotrichum lagenaria, 42.2% with Penicillium digitatum and 41% with Fusarium oxysporum. Besides, the EC50 in the test on Botrytis cinerea [2] worked out at 2.71 µg/mL (≈ 4.36 µM). This compound also gave an IC50 in test [3] of 3.031 µg/mL (≈ 4.88 µM).

Consider `CN1CC2=C(OC(N)=C(C#N)C2c2ccc(Br)o2)/C(=C/c2ccc(Br)o2)C1` (stereo not drawn), for which the inhibition at 16 µg/mL worked out at 87.2% with Sclerotinia sclerotiorum, 72.8% in the test with Botrytis cinerea [1], 78.2% in the test on Penicillium digitatum and 52.2% in the test with Fusarium oxysporum.

Turning to `COC(=O)C1=C(N)OC2=C(CN(C(=O)c3cccs3)C/C2=C\c2cccs2)C1c1cccs1` (stereo not drawn), the inhibition at 16 µg/mL in the test with Sclerotinia sclerotiorum came out at 40.5%; in the test with Colletotrichum lagenaria, 36.4%; in the test with Botrytis cinerea [1], 78.4%; with Penicillium digitatum, 33.8%; with Fusarium oxysporum, 31.5%.

In the case of `COC(=O)C1=C(N)OC2=C(CN(C)C/C2=C\c2cccs2)C1c1cccs1` (stereo not drawn), the inhibition at 16 µg/mL was found to be 57.2% in the test with Sclerotinia sclerotiorum; 51.8% in the test with Colletotrichum lagenaria; 38.8% with Botrytis cinerea [1]; 34.2% in the test on Penicillium digitatum; 25.8% in the test on Fusarium oxysporum.

On to `COC(=O)C1=C(N)OC2=C(CN(C)C/C2=C\c2ccc(Br)s2)C1c1ccc(Br)s1` (stereo not drawn), for which the inhibition at 16 µg/mL is 38.3% with Sclerotinia sclerotiorum; 33.6% in the test with Colletotrichum lagenaria; 31.6% in the test with Botrytis cinerea [1]; 22.5% with Penicillium digitatum; 20.3% in the test on Fusarium oxysporum.
